Laboratory results from patent US7183274B2, “Piperidine-2,6-diones heterocyclically substituted in the 3-position” (Gruenenthal GmbH, priority 2001, dated 2007).
Converted amounts (≈) assume the structure as drawn.

How the values were obtained:
[1] = test system: IL-12 production of LPS-activated monocytes; experiment: Inhibition of IL-12 production of LPS-activated human monocytes (ELISA of culture supernatant); type: cell-based; settings: 20 μg/ml LPS from E. coli, 24 hours; for IC50: Monocyte
Experimental: (§1) Stimulation of human monocytes with lipopolysaccharide for the secretion of IL-10 and IL-12:
(§2) Human monocytes were isolated from peripheral blood mononuclear cells (PBMC) that had been obtained by means of a ficoll density gradient centrifugation from heparinized full blood. For this purpose the PBMC were incubated with a monoclonal antibody that is directed against the monocyte-specific surface molecule CD14 and on which are coupled superparamagnetic microbeads (Miltenyi Biotech, Bergisch Gladbach). For the positive selection of the marked monocytes from the cell mixture of the PBMC, the total cell suspension was added to a column with ferromagnetic carrier matrix and this was placed in a magnetic field. In this way the cells that were loaded with microbeads were bound to the carrier matrix while unmarked cells passed through the column and were discarded. After removing the matrix from the magnetic field the antibody-loaded cells were eluted by rinsing the now demagnetized column with buffer. The purity of the CD14-positive monocyte population obtained in this way is about 95–98%. These monocytes were incubated for 1 hour at 37° C. and 5% CO2 in a density of 10^6 cells/ml culture medium (RPMI, supplemented with 10% fetal calf serum) with the test substances dissolved in DMSO. 20 μg/ml LPS from E. coli were then added. After 24 hours cell-free culture supernatants were taken and tested for their content of IL-10 as well as IL-12.
(§3) The concentration of IL-12 and IL-10 in the cell culture supernatants was determined by means of sandwich ELISAs using two anti-IL-12 and IL-10 monoclonal antibodies (Biosource Europe, Fleurus, Belgium). A reference standard curve with human IL-10 and IL-12 was included. The detection limit of the IL-12 ELISA was 10 pg/ml, and that of the IL-10 ELISA was 15 pg/ml.

[2] = test system: IL-10 production of LPS-activated monocytes; experiment: Increase in IL-10 production of LPS-activated human monocytes (ELISA of culture supernatant); type: cell-based; settings: 20 μg/ml LPS from E. coli, 24 hours
Experimental: as §1, §2, §3

Compound | IC50 [1] [µg/mL] | Inhibition of IL-12 Production Maximum (%) [1] [%] | Increase in IL-10 Production Maximum (%) [2] [%] | Inhibition of IL-12 Production IC50 [1] [µg/mL]
Br.O=C1CCC(N2C=Nc3cc(Cl)ccc3C2)C(=O)N1 (stereo not drawn) [Example 1, 3-(7-chloro-4H-quinazolin-3-yl)piperidine-2,6-dione; hydrobromide] | 0.005 | 99 | 360 | –
Br.O=C1CCC(N2C=Nc3ccccc3C2)C(=O)N1 (stereo not drawn) [Example 3, 3-(4H-quinazolin-3-yl)piperidine-2,6-dione; hydrobromide] | 0.01 | 98 | 230 | –
O=C1CCC(N2C=Nc3cccc(Cl)c3C2)C(=O)N1 (stereo not drawn) [Example 7a, 3-(5-chloro-4H-quinazolin-3-yl)piperidine-2.6-dione] | – | 98 | 365 | 0.001
O=C1CCC(N2C=Nc3cccc(F)c3C2)C(=O)N1 (stereo not drawn) [Example 7h, 3-(5-fluoro-4H-quinazolin-3-yl)piperidine-2.6-dione] | – | 97 | 316 | 0.006
O=C1CCC(N2C=Nc3cccc([N+](=O)[O-])c3C2)C(=O)N1 (stereo not drawn) [Example 7i, 3-(5-nitro-4H-ginazolin-3-yl)piperidine-2,6-dione] | – | 96 | 211 | 0.036
O=C1CCC(N2C(=O)c3ccccc3C2=O)C(=O)N1 (stereo not drawn) [Thalidomide, thalidomide, reference compound] | 0.1 (≈ 0.387 µM) | 80 | 180 | –

More lines, main results first:

IC50 [1] [µg/mL] | Compound | Inhibition of IL-12 Production Maximum (%) [1] [%] | Increase in IL-10 Production Maximum (%) [2] [%] | Inhibition of IL-12 Production IC50 [1] [µg/mL]
0.0008 | Cl.O=C1CCC(N2C=Nc3cc(F)ccc3C2)C(=O)N1 (stereo not drawn) [Example 7f, 3-(7-fluoro-4H-quinazolin-3-yl)piperidine-2,6-dione; hydrochloride] | 98 | 420 | –
0.05 (≈ 0.194 µM) | Cc1cccc2c1CN(C1CCC(=O)NC1=O)C=N2 (stereo not drawn) [Example 7m, 3-(5-methyl-4H-quinazolin-3-yl)piperidine-2,6-dione] | 89 | 202 | –
0.042 (≈ 0.15 µM) | O=C1CCC(N2C=Nc3cc(F)c(F)cc3C2)C(=O)N1 (stereo not drawn) [Example 7n, 3-(6,7-difluoro-4H-quinazolin-3-yl)piperidine-2,6-dione] | 84 | 263 | –
